Residues, ends and D or L forms follow the SMILES beside them.
System: WT mice
Test: CLP-induced sepsis, 10-day survival
Type: in vivo, mouse
Description: FIG. 6A-6M: MOP3 ameliorates inflammation, lung injury, and improves survival in sepsis. WT mice subjected to CLP-induced sepsis with MOP3 treatment (10 μg/kg) or vehicle (volume-equivalent). After 20 hours, blood and lung tissue collected for respective analyses. (A-C) Serum was analyzed for systemic eCIRP, IL-6, and TNFα levels by ELISA. (D-F) Serum was analyzed for ALT, AST, and LDH by calorimetric assays. (G-I) Lung tissue was frozen and mRNA expression of IL-6, TNFα, and IL-1β was measured by PCR and MPO by calorimetric assay. (J) Lung tissue was frozen and analyzed for MPO levels by calorimetric assay. (K) Lungs were sectioned, imaged for histologic injury by H&E staining, and performed lung injury scoring. (L) Sectioned lungs were stained for TUNEL positive cells and cell counts were quantified. […] Data are expressed as mean±SEM and compared by one-way ANOVA and SNK test. *p<0.05 vs. sham, #p<0.05 vs. CLP vehicle. (M) WT mice subjected to CLP-induced sepsis with MOP3 treatment (10 μg/kg) or vehicle (volume equivalent) and monitored for 10 days for humane endpoints, and differences in survival were determined (N=17 per group). *p<0.05 vs. CLP vehicle. […]
Data represented in the figures are expressed as mean±SEM. […] Survival rates were analyzed by the Kaplan-Meier estimator and compared using a log-rank test. Significant differences between groups were determined by Tukey's method. […]

CC(C)C[C@H](NC(=O)[C@H](CC(N)=O)NC(=O)[C@H](Cc1c[nH]c2ccccc12)NC(=O)[C@@H](NC(=O)[C@H](CCCCN)NC(=O)[C@H](Cc1ccc(O)cc1)NC(=O)[C@H](CO)NC(=O)[C@H](CO)NC(=O)[C@H](CO)NC(=O)[C@H](CC(=O)O)NC(=O)CNC(=O)[C@@H](N)CCCNC(=N)N)[C@@H](C)O)C(=O)N[C@@H](CCCNC(=N)N)C(=O)N[C@@H](C)C(=O)N[C@@H](Cc1ccccc1)C(=O)NCC(=O)N[C@@H](Cc1c[nH]c2ccccc12)C(=O)N[C@@H](Cc1ccc(O)cc1)C(=O)O [MOP3, RGDSSSYKTWNLRAFGWY] (H-RGDSSSYKTWNLRAFGWY-OH; N-terminus and C-terminus assumed)
mortality (CLP, one-time MOP3 dose, monitored 10 days, N=17 per group): 17.6% | observed phenotypic effects (septic mice, no off-target, pharmacokinetic or toxicity studies performed): lack of observed phenotypic effects

Reference: patent US20240197828A1, “Chimeric molecule to treat sepsis and other inflammatory conditions” (THE FEINSTEIN INSTITUTES FOR MEDICAL RESEARCH, priority 2022, published 2024)
